Assays:
[1] = biological target: human Factor XIa (Homo sapiens (Human), UniProt P03951); test: Factor XIa Assay; format: biochemical; conditions: for IC50: human Factor XIa 0.04 nM, 30 min pre-incubation at 25° C., substrate GPR-AFC, read-out: FXIa IC50; for inhibition at 1 µM: read-out: FXIa % Inh. @ 1000 nM
Experimental: (§1) The effectiveness of a compound of the present invention as an inhibitor of Coagulation Factor XIa can be determined using a relevant purified serine protease, and an appropriate synthetic substrate. The rate of hydrolysis of the chromogenic or fluorogenic substrate by the relevant serine protease was measured both in the absence and presence of compounds of the present invention. Assays were conducted at room temperature or at 37° C. […] A decrease in the rate of fluorescence change in the presence of inhibitor is indicative of enzyme inhibition. Such methods are known to one skilled in the art. The results of this assay are expressed as the half-maximal inhibitory concentrations (IC50), or the inhibitory constant, Ki.
Compounds were pre-incubated for 30 minutes at 25° C. with human (0.04 nM) Factor XIa in 50 mM HEPES buffer with 150 mM sodium chloride, 5 mM calcium chloride, 0.1% PEG 8000, pH 7.4. Factor XIa enzymatic activity was determined by addition of the substrate glycine-proline-arginine-7-amido-4-trifluoromethylcoumarin (GPR-AFC) and measurement of the fluorescence at 400/505 nm after a 60 minute incubation at 25° C. The % inhibition for each data point was calculated from the data and analyzed using the log (inhibitor) vs. response four parameters equation to determine the half-maximal inhibitory concentrations (IC50). The IC50 were converted to equilibrium inhibitory constants (Ki) using the Cheng-Prusoff equation.

[2] = tested on: Human plasma (intrinsic coagulation cascade); test: Activated Partial Thromboplastin Time (aPTT) Assay; conditions: concentration that causes a 50% (1.5×) increase of clot time over vehicle
Experimental: Activated partial thromboplastin time (aPTT) is a clotting test that measures the intrinsic coagulation cascade. The test is performed in sodium citrated plasma. Human plasma is made by collecting blood from healthy donors of both genders into Na citrate tubes (Sarstedt coagulation 9NC/10 ml). Blood is centrifuged at 1500×g and the plasma is collected. aPTT is checked on each individual donor and those within the normal range (28-40 seconds) are pooled, aliquoted, and stored at −80 C. Test samples are prepared by spiking inhibitors or vehicle into plasma. These spiked samples are then run on a coagulation analyzer (STA-R Evolution, Stago Diagnostica). In general, the analyzer performs the following steps: Factor XII is activated by addition of ellagic acid (Pacific Hemostasis), and then time to clot is measured after re-calcification of the sample. Inhibition of FXI will cause aPTT clot time to be prolonged. The data is expressed as percent increase over vehicle control clot time and the concentration that causes a 50% (1.5×) percent increase of clot time are reported.

[3] = biological target: Human plasma kallikrein (Homo sapiens (Human), UniProt P03952); test: Kallikrein Assay; format: biochemical; conditions: purified Human plasma kallikrein 0.5 nM, substrate Acetyl-K-P-R-AFC; read-out: P. KLK IC50
Sequence of Human plasma kallikrein (P03952 391-638): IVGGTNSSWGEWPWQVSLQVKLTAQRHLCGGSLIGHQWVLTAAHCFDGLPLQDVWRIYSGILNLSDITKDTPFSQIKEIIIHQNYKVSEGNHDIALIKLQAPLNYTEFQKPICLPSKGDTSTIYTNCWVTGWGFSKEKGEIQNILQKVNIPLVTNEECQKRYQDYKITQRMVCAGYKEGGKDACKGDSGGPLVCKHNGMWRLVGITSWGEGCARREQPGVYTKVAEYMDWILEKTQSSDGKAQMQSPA
Sequence of Human plasma kallikrein (P03952 20-390 partner): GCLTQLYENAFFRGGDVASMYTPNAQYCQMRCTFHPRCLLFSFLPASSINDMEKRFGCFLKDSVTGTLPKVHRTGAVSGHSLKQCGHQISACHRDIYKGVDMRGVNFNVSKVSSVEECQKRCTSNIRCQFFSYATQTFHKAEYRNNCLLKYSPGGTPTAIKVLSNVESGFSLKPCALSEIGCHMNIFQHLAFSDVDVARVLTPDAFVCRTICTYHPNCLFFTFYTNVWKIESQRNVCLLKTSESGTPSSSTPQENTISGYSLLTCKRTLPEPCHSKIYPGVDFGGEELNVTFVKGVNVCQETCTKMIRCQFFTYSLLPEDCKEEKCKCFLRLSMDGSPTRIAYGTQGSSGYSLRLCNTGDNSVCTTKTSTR
Experimental: as §1, with “Kallikrein” for “Coagulation Factor XIa”
Kallikrein determinations were made in 50 mM HEPES buffer at pH 7.4 containing 150 mM NaCl, 5 mM CaCl2, and 0.1% PEG 8000 (polyethylene glycol; Fisher Scientific). Determinations were made using purified Human plasma kallikrein at a final concentration of 0.5 nM (Enzyme Research Laboratories) and the synthetic substrate, Acetyl-K-P-R-AFC (Sigma # C6608) at a concentration of […].
Times required to achieve equilibration between enzyme and inhibitor were determined in control experiments. The reactions were performed under linear progress curve conditions and fluorescence increase measured at 405 Ex/510 Em nm. […] IC50 was determined by inflection point from a four parameter logistic curve fit. Ki was calculated using the Cheng Prusoff equation, Ki=IC50/(1+([S]/Km)).

Sequence of human Factor XIa (P03951 388-625): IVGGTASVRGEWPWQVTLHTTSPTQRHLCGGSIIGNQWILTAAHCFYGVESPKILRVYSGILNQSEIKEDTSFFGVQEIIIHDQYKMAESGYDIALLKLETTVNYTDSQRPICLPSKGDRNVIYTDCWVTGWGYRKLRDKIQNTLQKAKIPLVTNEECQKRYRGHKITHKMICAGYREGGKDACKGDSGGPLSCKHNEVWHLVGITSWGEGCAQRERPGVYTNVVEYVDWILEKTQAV
Sequence of human Factor XIa (P03951 19-387 partner): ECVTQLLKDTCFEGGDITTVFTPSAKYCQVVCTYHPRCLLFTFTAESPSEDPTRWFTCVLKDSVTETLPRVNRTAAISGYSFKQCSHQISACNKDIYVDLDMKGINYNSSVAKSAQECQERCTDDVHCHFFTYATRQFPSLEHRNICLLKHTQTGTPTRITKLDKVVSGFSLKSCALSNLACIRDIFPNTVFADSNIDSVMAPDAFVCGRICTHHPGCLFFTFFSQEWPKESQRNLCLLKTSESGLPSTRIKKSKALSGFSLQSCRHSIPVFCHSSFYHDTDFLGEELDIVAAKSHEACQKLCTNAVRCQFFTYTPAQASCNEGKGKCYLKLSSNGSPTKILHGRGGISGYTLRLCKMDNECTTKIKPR

Row | Compound | IC50 [1] [nM] | aPTT (1.5x) [2] [µM] | IC50 [3] [nM] | FXIa % Inh. @ 1000 nM ([1]; @ 1000 nM compound) [%] | inhibition at 1 µM ([1]; @ 1000 nM compound) [%]
1 | O=C(O)c1ccc(NC(=O)C(CC2CC2)c2ccc(-c3cc(Cl)ccc3C(F)F)c[n+]2[O-])cc1 (single isomer, unassigned) [Example 28, (S)- or (R)-2-(1-((4-carboxyphenyl)amino)-3-cyclopropyl-1-oxopropan-2-yl)-5-(5-chloro-2-(difluoromethyl)phenyl)pyridine 1-oxide] | 293 | >100 | – | – | –
2 | Cc1cc(NC(=O)C(CC2CC2)c2ccc(-c3c(C(F)F)ccc(Cl)c3F)c[n+]2[O-])ccc1C(=O)O (single isomer, unassigned) [Example 122, 2-(1-((4-carboxy-3-methylphenyl)amino)-3-cyclopropyl-1-oxopropan-2-yl)-5-(3-chloro-6-(difluoromethyl)-2-fluorophenyl)pyridine 1-oxide] | 9.9 | – | 69.8 | – | –
3 | CCOc1ccc(Cl)c(F)c1-c1ccc(C(CC2CC2)C(=O)Nc2ccc(C(=O)O)cc2)[n+]([O-])c1 (single isomer, unassigned) [Example 8, (S)- or (R)-4-({2-[5-(3-chloro-6-ethoxy-2-fluorophenyl)-1-oxidopyridin-2-yl]-3-cyclopropylpropanoyl}amino) benzoic acid] | 968 | >100 | – | – | –
4 | COC(=O)c1ccc(NC(=O)C(CC2CC2)c2ccc(-c3c(C(F)F)ccc(Cl)c3F)c[n+]2[O-])cc1 (single isomer, unassigned) [Example 114, 5-(3-chloro-6-(difluoromethyl)-2-fluorophenyl)-2-(3-cyclopropyl-1-((4-(methoxycarbonyl)phenyl)amino)-1-oxopropan-2-yl)pyridine 1-oxide] | 1000 | – | 201 | 45 | –
5 | O=C1CCC(CC(C(=O)Nc2ccc(C(=O)O)cc2)c2ccc(-c3c(OC(F)F)ccc(Cl)c3F)c[n+]2[O-])CC1 (single isomer, unassigned) [Example 33] | – | – | 81 | – | –
6 | CC1CC(CC(C(=O)Nc2ccc(C(=O)O)cc2)c2ccc(-c3c(C(F)(F)F)ccc(Cl)c3F)c[n+]2[O-])C1 (single isomer, unassigned) [Example 75, 2-(1-((4-carboxyphenyl)amino)-3-(3-methylcyclobutyl)-1-oxopropan-2-yl)-5-(3-chloro-2-fluoro-6-(trifluoromethyl)phenyl) pyridine 1-oxide] | 3.3 | – | 77.8 | – | –
7 | CC1CCC1CC(C(=O)Nc1ccc(C(=O)O)cc1)c1ccc(-c2c(OC(F)F)ccc(Cl)c2F)c[n+]1[O-] (single isomer, unassigned) [Example 105, 2-(1-((4-carboxyphenyl)amino)-3-(2-methylcyclobutyl)-1-oxopropan-2-yl)-5-(3-chloro-6-(difluoromethoxy)-2-fluorophenyl)pyridine 1-oxide] | 0.61 | 1.13 | – | – | –
8 | O=C(O)c1ccc(NC(=O)C(CC2CC2)c2ccc(-c3cc(Cl)ccc3OC(F)F)c[n+]2[O-])cc1 (single isomer, unassigned) [Example 6, (S)- or (R)-4-[(2-{5-[5-chloro-2-(difluoromethoxy)phenyl]-1-oxidopyridin-2-yl}-3-cyclopropylpropanoyl)amino] benzoic acid] | > 1000 | >100 | – | – | 30
9 | O=C(O)c1ccc(NC(=O)C(CC2CCCC2)c2ccc(-c3c(OC(F)F)ccc(Cl)c3F)c[n+]2[O-])cc1 (single isomer, unassigned) [Example 18, (S)- or (R)-4-[(2-{5-[3-chloro-6-(difluoromethoxy)-2-fluorophenyl]-1-oxidopyridin-2-yl}-3-cyclopentylpropanoyl)amino] benzoic acid] | 100 | >100 | – | – | –
10 | O=C(O)c1ccc(NC(=O)[C@@H](CC2CCC2)c2ccc(-c3c(C(F)F)ccc(Cl)c3F)c[n+]2[O-])cc1 (mixture of isomers) [Example 3, (S)- and (R)-2-(1-((4-Carboxyphenyl)amino)-3-cyclobutyl-1-oxopropan-2-yl)-5-(3-chloro-6-(difluoromethyl)-2-fluorophenyl)pyridine 1-oxide] | 39 | >100 | – | – | –
11 | O=C(O)c1ccc(NC(=O)[C@@H](CC2CC2)c2ccc(-c3c(C(F)F)ccc(Cl)c3F)c[n+]2[O-])cc1 (mixture of isomers) [Example 23, (S)- and (R)-2-(1-((4-carboxyphenyl)amino)-3-cyclopropyl-1-oxopropan-2-yl)-5-(3-chloro-6-(difluoromethyl)-2-fluorophenyl)pyridine 1-oxide] | – | 0.61 | – | – | –
12 | CC(C)Oc1ccc(Cl)c(F)c1-c1ccc(C(CC2CC2)C(=O)Nc2ccc(C(=O)O)cc2)[n+]([O-])c1 (single isomer, unassigned) [Example 16, (S)- or (R)-4-[(2-{5-[3-chloro-2-fluoro-6-(1-methylethoxy)phenyl]-1-oxidopyridin-2-yl}-3-cyclopropylpropanoyl)amino] benzoic acid] | > 1000 | >100 | – | – | 33
13 | C[C@@H]1C[C@H]1C[C@@H](C(=O)Nc1ccc(C(=O)O)cc1)c1ccc(-c2c(OC(F)F)ccc(Cl)c2F)c[n+]1[O-] (single isomer, unassigned) [Example 56] | 0.38 | 1.34 | – | – | –
14 | O=C(O)c1ccc(NC(=O)C(CC2CC2(F)F)c2ccc(-c3c(C(F)F)ccc(Cl)c3F)c[n+]2[O-])cc1 (single isomer, unassigned) [Example 77, 2-(1-((4-carboxyphenyl)amino)-3-(2,2-difluorocyclopropyl)-1-oxopropan-2-yl)-5-(3-chloro-6-(difluoromethyl)-2-fluorophenyl)pyridine 1-oxide] | – | – | 37.6 | – | –
15 | CC1(O)CC(CC(C(=O)Nc2ccc(C(=O)O)cc2)c2ccc(-c3c(C(F)F)ccc(Cl)c3F)c[n+]2[O-])C1 (single isomer, unassigned) [Example 83, 2-(1-((4-carboxyphenyl)amino)-3-(3-hydroxy-3-methylcyclobutyl)-1-oxopropan-2-yl)-5-(3-chloro-6-(difluoromethyl)-2-fluorophenyl)pyridine 1-oxide] | – | 0.62 | – | – | –
16 | O=C(O)c1ccc(NC(=O)C(CC2CC2F)c2ccc(-c3c(C(F)F)ccc(Cl)c3F)c[n+]2[O-])cc1 (single isomer, unassigned) [Example 91, 2-(1-((4-carboxyphenyl)amino)-3-(2-fluorocyclopropyl)-1-oxopropan-2-yl)-5-(3-chloro-6-(difluoromethyl)-2-fluorophenyl)pyridine 1-oxide] | 27.9 | 5.93 | – | – | –
17 | CC1(O)CC(CC(C(=O)Nc2ccc(C(=O)O)cc2)c2ccc(-c3c(C(F)F)ccc(Cl)c3F)c[n+]2[O-])C1 (single isomer, unassigned) [Example 85, 2-(1-((4-carboxyphenyl)amino)-3-(3-hydroxy-3-methylcyclobutyl)-1-oxopropan-2-yl)-5-(3-chloro-6-(difluoromethyl)-2-fluorophenyl)pyridine 1-oxide] | – | 1 | – | – | –
18 | CC(C)Oc1ccc(Cl)c(F)c1-c1ccc(C(CC2CC2)C(=O)Nc2ccc(C(=O)O)cc2)[n+]([O-])c1 (single isomer, unassigned) [Example 17, (R)- or (S)-4-[(2-{5-[3-chloro-2-fluoro-6-(1-methylethoxy)phenyl]-1-oxidopyridin-2-yl}-3-cyclopropylpropanoyl)amino] benzoic acid] | 24 | >100 | – | – | –

Source: US10143681B2, “Factor XIa inhibitors” (MERCK SHARP & DOHME CORP., priority 2016, dated 2018)
